# Laboratory results: the kinase profiling compilation of Christmann-Franck et al. (2016)
# Tests used:
# Test in all cases: Caliper, Mobility shift assay off-chip
# ABL1 (human) = ABL1 (human) (UniProt P00519)
# [1] = system: ABL1 (human), P00519 [Q252H]
# [2] = system: ABL1 (human), P00519 [T315I]
# AURKA (human) = AURKA (human) (UniProt O14965)
# CAMK2B (human) = CAMK2B (human) (UniProt Q13554)
# CAMK4 (human) = CAMK4 (human) (UniProt Q16566)
# CDK2 (human) = CDK2 (human) (UniProt P24941)
# CHEK2 (human) = CHEK2 (human) (UniProt O96017)
# DYRK1A (human) = DYRK1A (human) (UniProt Q13627)
# FER (human) = FER (human) (UniProt P16591)
# Chain of FER (human) (P16591 whole entry, looked up): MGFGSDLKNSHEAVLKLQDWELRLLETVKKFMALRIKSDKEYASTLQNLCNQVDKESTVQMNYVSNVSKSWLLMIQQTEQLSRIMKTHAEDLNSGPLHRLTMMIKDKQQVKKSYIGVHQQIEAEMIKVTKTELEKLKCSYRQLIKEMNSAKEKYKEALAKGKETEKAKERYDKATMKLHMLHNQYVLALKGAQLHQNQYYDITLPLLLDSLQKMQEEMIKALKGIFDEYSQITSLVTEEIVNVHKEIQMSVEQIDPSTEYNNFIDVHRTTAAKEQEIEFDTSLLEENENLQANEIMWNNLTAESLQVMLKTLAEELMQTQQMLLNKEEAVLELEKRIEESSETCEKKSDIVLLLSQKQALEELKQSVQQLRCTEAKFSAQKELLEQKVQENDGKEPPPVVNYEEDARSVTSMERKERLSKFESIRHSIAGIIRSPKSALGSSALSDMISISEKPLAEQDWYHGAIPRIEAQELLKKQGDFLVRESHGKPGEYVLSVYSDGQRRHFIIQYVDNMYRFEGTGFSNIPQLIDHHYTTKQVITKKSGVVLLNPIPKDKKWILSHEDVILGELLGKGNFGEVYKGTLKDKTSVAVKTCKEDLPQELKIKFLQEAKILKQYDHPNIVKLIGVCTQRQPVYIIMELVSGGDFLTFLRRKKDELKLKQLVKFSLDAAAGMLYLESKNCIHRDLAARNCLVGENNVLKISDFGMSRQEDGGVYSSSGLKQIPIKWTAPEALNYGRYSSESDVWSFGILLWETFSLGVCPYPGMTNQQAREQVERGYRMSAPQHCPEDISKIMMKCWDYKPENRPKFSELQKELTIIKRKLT
# FGFR2 (human) = FGFR2 (human) (UniProt P21802)
# [3] = system: FGFR2 (human), P21802 [N549H]
# FYN (human) = FYN (human) (UniProt P06241)
# HCK (human) = HCK (human) (UniProt P08631)
# INSR (human) = INSR (human) (UniProt P06213)
# MAP4K4 (human) = MAP4K4 (human) (UniProt O95819)
# Chain of MAP4K4 (human) (O95819 whole entry, looked up): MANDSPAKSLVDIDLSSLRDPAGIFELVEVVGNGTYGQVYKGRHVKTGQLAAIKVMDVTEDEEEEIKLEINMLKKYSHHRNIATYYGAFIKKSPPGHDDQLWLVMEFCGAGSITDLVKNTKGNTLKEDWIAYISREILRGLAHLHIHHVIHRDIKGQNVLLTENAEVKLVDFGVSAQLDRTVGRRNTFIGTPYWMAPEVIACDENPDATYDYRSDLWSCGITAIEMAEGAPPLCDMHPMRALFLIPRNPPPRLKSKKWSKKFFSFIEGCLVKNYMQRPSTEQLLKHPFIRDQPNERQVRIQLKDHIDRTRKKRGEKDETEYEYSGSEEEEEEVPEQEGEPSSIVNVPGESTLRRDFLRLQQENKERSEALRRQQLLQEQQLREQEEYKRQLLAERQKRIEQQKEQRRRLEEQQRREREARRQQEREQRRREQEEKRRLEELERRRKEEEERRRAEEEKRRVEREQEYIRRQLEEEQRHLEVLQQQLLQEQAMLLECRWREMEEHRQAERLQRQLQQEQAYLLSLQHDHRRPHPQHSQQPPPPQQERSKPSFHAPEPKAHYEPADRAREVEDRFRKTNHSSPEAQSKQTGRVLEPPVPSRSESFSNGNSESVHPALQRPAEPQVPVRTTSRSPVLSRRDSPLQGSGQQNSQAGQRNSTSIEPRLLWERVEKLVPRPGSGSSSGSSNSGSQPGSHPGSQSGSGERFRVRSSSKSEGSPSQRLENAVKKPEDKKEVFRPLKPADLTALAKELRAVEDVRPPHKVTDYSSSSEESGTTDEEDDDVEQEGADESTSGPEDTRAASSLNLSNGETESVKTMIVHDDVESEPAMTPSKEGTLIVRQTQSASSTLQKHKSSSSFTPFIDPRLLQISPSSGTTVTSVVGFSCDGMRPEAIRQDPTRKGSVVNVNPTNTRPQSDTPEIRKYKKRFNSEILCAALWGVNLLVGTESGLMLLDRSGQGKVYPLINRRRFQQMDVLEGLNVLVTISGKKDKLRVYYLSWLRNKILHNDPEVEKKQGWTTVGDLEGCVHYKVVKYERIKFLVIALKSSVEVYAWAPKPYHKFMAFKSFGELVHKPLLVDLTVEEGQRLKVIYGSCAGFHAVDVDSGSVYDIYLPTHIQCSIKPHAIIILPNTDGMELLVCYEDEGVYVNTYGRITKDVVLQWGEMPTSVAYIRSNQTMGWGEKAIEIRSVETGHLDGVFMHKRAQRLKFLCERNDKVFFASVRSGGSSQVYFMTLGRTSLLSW
# MAPK1 (human) = MAPK1 (human) (UniProt P28482)
# Chain of MAPK1 (human) (P28482 whole entry, looked up): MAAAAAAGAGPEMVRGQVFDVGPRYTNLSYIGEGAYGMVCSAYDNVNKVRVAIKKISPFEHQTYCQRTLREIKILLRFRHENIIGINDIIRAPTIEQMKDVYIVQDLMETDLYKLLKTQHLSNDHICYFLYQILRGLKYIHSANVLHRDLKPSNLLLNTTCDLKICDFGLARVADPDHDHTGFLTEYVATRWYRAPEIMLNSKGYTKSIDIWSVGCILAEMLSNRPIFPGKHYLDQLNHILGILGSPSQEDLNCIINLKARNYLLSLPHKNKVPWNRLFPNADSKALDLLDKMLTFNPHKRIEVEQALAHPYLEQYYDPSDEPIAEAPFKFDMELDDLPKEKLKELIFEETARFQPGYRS
# MARK1 (human) = MARK1 (human) (UniProt Q9P0L2)
# NEK2 (human) = NEK2 (human) (UniProt P51955)
# PDGFRA (human) = PDGFRA (human) (UniProt P16234)
# PIM1 (human) = PIM1 (human) (UniProt P11309)
# Chain of PIM1 (human) (P11309 whole entry, looked up): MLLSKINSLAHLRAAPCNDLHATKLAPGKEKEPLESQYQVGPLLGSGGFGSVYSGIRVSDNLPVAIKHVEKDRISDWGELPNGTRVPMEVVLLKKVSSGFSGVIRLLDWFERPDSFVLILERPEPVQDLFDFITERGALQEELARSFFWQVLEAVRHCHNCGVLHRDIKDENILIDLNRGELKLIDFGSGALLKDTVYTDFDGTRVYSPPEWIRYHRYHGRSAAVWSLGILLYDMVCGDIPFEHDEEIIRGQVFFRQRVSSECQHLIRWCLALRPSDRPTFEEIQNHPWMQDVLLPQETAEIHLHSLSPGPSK
# PRKACA (human) = PRKACA (human) (UniProt P17612)
# PRKCA (human) = PRKCA (human) (UniProt P17252); conditions: compound 0.1 µM
# PRKCB1 (human) = PRKCB1 (human) (UniProt P05771); conditions: compound 0.1 µM
# PRKCB2 (human) = PRKCB2 (human) (UniProt P05771)
# PRKCH (human) = PRKCH (human) (UniProt P24723)
# PRKD1 (human) = PRKD1 (human) (UniProt Q15139)
# Chain of PRKD1 (human) (Q15139 whole entry, looked up): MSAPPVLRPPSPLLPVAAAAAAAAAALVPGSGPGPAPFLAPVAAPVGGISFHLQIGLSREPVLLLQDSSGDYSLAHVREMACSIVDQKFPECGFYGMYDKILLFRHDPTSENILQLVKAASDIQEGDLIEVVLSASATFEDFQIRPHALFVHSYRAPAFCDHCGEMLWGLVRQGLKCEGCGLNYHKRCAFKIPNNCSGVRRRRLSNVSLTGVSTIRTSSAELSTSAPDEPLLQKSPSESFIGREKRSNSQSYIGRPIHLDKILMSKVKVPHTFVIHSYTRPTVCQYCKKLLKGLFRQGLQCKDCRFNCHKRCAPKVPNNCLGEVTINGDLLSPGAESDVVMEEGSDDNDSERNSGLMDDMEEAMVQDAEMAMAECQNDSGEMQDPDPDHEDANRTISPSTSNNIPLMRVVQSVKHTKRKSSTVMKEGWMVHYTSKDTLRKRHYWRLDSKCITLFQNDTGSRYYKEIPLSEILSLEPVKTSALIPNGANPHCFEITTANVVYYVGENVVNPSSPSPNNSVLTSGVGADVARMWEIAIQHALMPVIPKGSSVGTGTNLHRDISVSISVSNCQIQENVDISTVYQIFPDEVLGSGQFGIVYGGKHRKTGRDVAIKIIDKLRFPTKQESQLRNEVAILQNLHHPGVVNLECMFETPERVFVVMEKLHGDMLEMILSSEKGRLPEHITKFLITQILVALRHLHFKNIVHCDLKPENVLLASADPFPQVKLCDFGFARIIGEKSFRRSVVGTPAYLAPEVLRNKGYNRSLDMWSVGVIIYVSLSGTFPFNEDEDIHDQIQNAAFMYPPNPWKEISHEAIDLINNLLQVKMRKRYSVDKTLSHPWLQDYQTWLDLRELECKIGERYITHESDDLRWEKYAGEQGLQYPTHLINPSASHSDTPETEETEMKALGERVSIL
# ROCK2 (human) = ROCK2 (human) (UniProt O75116)
# RPS6KA4 KD1 KD2 (human) = RPS6KA4 KD1 KD2 (human) (UniProt O75676); conditions: compound 0.1 µM
# RPS6KB1 (human) = RPS6KB1 (human) (UniProt P23443)
# SGK1 (human) = SGK1 (human) (UniProt O00141)
# SGK3 (human) = SGK3 (human) (UniProt Q96BR1)
# TSSK1B (human) = TSSK1B (human) (UniProt Q9BXA7)
# Chain of TSSK1B (human) (Q9BXA7 whole entry, looked up): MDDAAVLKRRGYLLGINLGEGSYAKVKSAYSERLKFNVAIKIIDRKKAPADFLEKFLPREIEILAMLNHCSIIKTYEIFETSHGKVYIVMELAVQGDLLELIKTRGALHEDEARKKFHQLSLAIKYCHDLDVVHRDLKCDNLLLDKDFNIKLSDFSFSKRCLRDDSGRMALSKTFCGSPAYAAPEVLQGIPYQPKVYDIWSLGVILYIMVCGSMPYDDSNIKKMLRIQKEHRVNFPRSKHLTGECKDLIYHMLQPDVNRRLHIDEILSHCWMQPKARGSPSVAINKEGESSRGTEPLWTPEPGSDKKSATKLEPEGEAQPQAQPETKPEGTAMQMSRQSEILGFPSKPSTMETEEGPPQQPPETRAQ
# Chain of CAMK2B (human) (Q13554 whole entry, looked up): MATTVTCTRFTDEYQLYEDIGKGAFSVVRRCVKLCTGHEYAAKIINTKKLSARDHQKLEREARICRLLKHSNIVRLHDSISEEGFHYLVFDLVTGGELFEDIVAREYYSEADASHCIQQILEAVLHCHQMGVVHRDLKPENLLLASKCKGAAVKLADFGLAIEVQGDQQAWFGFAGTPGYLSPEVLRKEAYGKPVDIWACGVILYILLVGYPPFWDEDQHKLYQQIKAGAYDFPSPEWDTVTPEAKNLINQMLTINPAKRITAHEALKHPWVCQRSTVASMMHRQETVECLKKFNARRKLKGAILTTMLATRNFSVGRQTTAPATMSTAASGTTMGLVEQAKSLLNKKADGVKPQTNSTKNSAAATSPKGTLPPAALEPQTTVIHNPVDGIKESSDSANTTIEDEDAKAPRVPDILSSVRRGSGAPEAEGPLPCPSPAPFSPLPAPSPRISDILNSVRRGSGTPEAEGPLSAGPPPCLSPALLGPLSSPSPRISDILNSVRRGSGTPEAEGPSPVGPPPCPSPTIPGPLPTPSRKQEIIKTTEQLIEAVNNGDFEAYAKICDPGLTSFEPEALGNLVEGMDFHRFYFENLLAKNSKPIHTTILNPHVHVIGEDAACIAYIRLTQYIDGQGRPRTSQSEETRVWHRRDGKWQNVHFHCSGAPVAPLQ
compound,measurement,setting,value
Cn1cc(-c2cnc3ccc4ccc(CS(N)(=O)=O)cc4c(=O)c3c2)cn1,inhibition,ABL1 (human); compound 0.1 µM,6.9%
same,inhibition,ABL1 (human); compound 1.0 µM,22.9%
same,inhibition,[1]; compound 0.1 µM,-0.1%
same,inhibition,[1]; compound 1.0 µM,24.9%
same,inhibition,[2]; compound 0.1 µM,1.4%
same,inhibition,[2]; compound 1.0 µM,12.7%
same,inhibition,AURKA (human); compound 0.1 µM,27.6%
same,inhibition,AURKA (human); compound 1.0 µM,75.5%
same,inhibition,CAMK2B (human); compound 0.1 µM,-21.3%
same,inhibition,CAMK2B (human); compound 1.0 µM,-19.3%
same,inhibition,CAMK4 (human); compound 0.1 µM,-1.6%
same,inhibition,CAMK4 (human); compound 1.0 µM,-6.4%
same,inhibition,CDK2 (human); compound 0.1 µM,1.2%
same,inhibition,CDK2 (human); compound 1.0 µM,-3.9%
same,inhibition,CHEK2 (human); compound 0.1 µM,-3.5%
same,inhibition,CHEK2 (human); compound 1.0 µM,0.7%
same,inhibition,DYRK1A (human); compound 0.1 µM,6.2%
same,inhibition,DYRK1A (human); compound 1.0 µM,32.9%
same,inhibition,FER (human); compound 0.1 µM,-53.2%
same,inhibition,FER (human); compound 1.0 µM,-24.2%
same,inhibition,FGFR2 (human); compound 0.1 µM,21.8%
same,inhibition,FGFR2 (human); compound 1.0 µM,47.9%
same,inhibition,[3]; compound 0.1 µM,15.5%
same,inhibition,[3]; compound 1.0 µM,40.5%
same,inhibition,FYN (human); compound 0.1 µM,-3.7%
same,inhibition,FYN (human); compound 1.0 µM,6%
same,inhibition,HCK (human); compound 0.1 µM,-59.1%
same,inhibition,HCK (human); compound 1.0 µM,-1.6%
same,inhibition,INSR (human); compound 0.1 µM,12%
same,inhibition,INSR (human); compound 1.0 µM,6.4%
same,inhibition,MAP4K4 (human); compound 0.1 µM,7.1%
same,inhibition,MAP4K4 (human); compound 1.0 µM,1.8%
same,inhibition,MAPK1 (human); compound 0.1 µM,-5.5%
same,inhibition,MAPK1 (human); compound 1.0 µM,0.8%
same,inhibition,MARK1 (human); compound 0.1 µM,16.5%
same,inhibition,MARK1 (human); compound 1.0 µM,81.8%
same,inhibition,NEK2 (human); compound 0.1 µM,-1.5%
same,inhibition,NEK2 (human); compound 1.0 µM,-7.5%
same,inhibition,PDGFRA (human); compound 0.1 µM,-19.1%
same,inhibition,PDGFRA (human); compound 1.0 µM,15.5%
same,inhibition,PIM1 (human); compound 0.1 µM,-4.1%
same,inhibition,PIM1 (human); compound 1.0 µM,3.7%
same,inhibition,PRKACA (human); compound 0.1 µM,-5.5%
same,inhibition,PRKACA (human); compound 1.0 µM,-1.1%
same,inhibition,PRKCA (human),3.1%
same,inhibition,PRKCB1 (human),-9.3%
same,inhibition,PRKCB2 (human); compound 0.1 µM,2.6%
same,inhibition,PRKCB2 (human); compound 1.0 µM,-6%
same,inhibition,PRKCH (human); compound 0.1 µM,-6.7%
same,inhibition,PRKCH (human); compound 1.0 µM,0.2%
same,inhibition,PRKD1 (human); compound 0.1 µM,-5.2%
same,inhibition,PRKD1 (human); compound 1.0 µM,0.2%
same,inhibition,ROCK2 (human); compound 0.1 µM,3%
same,inhibition,ROCK2 (human); compound 1.0 µM,2%
same,inhibition,RPS6KA4 KD1 KD2 (human),15.2%
same,inhibition,RPS6KB1 (human); compound 0.1 µM,10%
same,inhibition,RPS6KB1 (human); compound 1.0 µM,13.5%
same,inhibition,SGK1 (human); compound 0.1 µM,6.8%
same,inhibition,SGK1 (human); compound 1.0 µM,11.5%
same,inhibition,SGK3 (human); compound 0.1 µM,-1.4%
same,inhibition,SGK3 (human); compound 1.0 µM,3.9%
same,inhibition,TSSK1B (human); compound 0.1 µM,-0.9%
same,inhibition,TSSK1B (human); compound 1.0 µM,1%
